# How the values were obtained:
# Format in all cases: cell-based
# [1] = test system: A375 cells; experiment: Screening test 2: doxorubicin cytotoxicity, neutral red cell viability; conditions: 24 hours; for increase of cell mortality induced by dxr (dxr cytotoxicity enhancement): A375, paniceins 10 μM, dxr 1.5 μM
# Description: (§1) Cells were grown in 96 well plates in complete DMEM medium to achieve 60% to 70% confluence. Medium was then removed and replaced with 100 μL/well of complete DMEM medium containing paniceins at 10 μM (or at increasing concentrations for EC50 measurement) or DMSO as control. After 2 hours, 100 μL of complete DMEM medium containing doxorubicin was added in half wells to obtain the final concentration of 2 μM for MDA-MB-435 and MeWo, and 1.5 μM for A375. The cell viability was measured after 24 hours. Effect of compounds P2, P3, P4 and P5 on cell viability, and dose-response for compound P5 are shown for MDA-MB-435 (A), MeWo (B) and A375 (C). D. Enhancement of dxr cytotoxicity by paniceins is represented. The means (+/−sem) of at least three independent experiments are reported.
# (§2) Melanoma cells MDA-MB-435, Mewo and A375 were seeded on 96-well plates and grown 48 hours in complete DMEM medium to achieve 60% to 70% confluence. Medium was then removed and replaced with 100 μL/well of complete DMEM medium containing the compounds of interest at defined concentration or DMSO as control. After 2 hours, 100 µL of complete DMEM medium containing doxorubicin was added in half wells to obtain 2 μM doxorubicin. Plates were incubated at 37° C. in a 5% CO2/95% air water-saturated atmosphere. After 24 hours, microplates were incubated 3 hours at 37° C. with 100 μL/wells neutral red (NR) solution (50 μg/mL in DMEM). After a rapid wash with PBS at 4° C., microplates were gently tapped several times on absorbent paper. Cells were solubilized with 100 μL of a solution containing 1% acetic acid, 49% H2O, 50% ethanol by vortexing 3 minutes at 700 rpm and the absorbance at 600 nm was measured. EC50 were calculated using Regressi software.
# [2] = test system: MDA-MB-435 cells; experiment: as above; conditions: 24 hours; for increase of cell mortality induced by dxr (dxr cytotoxicity enhancement): MDA-MB-435, paniceins 10 μM, dxr 2 μM
# Description: as §1, §2
# [3] = test system: MeWo cells; experiment: as above; conditions: dxr 2 μM, 24 hours; for increase of cell mortality induced by dxr (dxr cytotoxicity enhancement): paniceins 10 μM
# Description: as §1, §2
# [4] = target: T1, human Patched (hPtc) expressed in yeasts (Homo sapiens, UniProt Q13635); experiment: Resistance of hPtc-expressing yeasts to other chemotherapeutic agents (yeast growth, absorbance 600 nm); conditions: 10 μM paniceins; for inhibition of the resistance of yeasts to vemurafenib: 10 μM vemurafenib; for inhibition of the resistance of yeasts to cisplatine: 50 μM cisplatine; for inhibition of the resistance of yeasts to dacarbazine: 2 mM dacarbazine
# T1 construct: MAP; expressed in transfected cells; host or cells: Saccharomyces cerevisiae K699
# T1 sequence (Q13635 1-1447): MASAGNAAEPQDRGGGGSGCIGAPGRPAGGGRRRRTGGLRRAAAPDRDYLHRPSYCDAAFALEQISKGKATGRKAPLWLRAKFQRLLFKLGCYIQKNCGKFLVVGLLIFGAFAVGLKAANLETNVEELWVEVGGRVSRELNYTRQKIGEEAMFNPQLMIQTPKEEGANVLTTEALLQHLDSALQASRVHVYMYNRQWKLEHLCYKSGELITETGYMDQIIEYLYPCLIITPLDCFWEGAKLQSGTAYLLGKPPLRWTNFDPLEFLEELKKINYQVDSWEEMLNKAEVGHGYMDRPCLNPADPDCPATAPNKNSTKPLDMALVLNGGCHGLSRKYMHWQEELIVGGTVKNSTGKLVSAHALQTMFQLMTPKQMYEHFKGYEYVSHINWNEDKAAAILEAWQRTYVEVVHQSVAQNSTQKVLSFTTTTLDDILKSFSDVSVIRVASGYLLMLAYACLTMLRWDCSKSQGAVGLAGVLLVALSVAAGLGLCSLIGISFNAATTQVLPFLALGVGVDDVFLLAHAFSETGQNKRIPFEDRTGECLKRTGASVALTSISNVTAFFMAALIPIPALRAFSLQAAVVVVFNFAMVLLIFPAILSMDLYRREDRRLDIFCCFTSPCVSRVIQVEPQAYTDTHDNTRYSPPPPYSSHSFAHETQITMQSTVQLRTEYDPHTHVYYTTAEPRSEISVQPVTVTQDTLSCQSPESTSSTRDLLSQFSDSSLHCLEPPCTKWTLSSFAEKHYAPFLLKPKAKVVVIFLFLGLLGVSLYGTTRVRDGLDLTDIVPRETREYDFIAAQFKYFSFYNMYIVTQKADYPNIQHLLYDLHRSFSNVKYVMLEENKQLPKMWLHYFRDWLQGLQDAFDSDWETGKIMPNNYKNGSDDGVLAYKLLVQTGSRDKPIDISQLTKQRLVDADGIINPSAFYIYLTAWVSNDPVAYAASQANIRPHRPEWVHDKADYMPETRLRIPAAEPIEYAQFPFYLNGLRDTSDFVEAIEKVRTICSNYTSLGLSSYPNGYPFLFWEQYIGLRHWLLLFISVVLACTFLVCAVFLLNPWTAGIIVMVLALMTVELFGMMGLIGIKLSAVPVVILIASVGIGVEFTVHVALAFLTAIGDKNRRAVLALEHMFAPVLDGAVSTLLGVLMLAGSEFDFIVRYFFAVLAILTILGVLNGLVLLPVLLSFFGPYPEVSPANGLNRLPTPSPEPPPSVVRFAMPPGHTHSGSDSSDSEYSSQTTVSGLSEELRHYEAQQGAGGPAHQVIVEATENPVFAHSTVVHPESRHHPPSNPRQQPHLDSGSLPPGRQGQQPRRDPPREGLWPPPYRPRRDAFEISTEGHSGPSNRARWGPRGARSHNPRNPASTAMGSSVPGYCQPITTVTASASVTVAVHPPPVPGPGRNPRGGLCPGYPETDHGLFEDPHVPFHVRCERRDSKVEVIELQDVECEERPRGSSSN
# Description: Paniceins were added at a final concentration of 10 μM to the yeast growth medium containing 2 mM of dacarbazine (A), 50 μM of cisplatine (B), or 10 μM of vemurafenib (C). The growth of hPtc-expressing-yeasts was measured by absorbance at 600 nm.
# The expression of human Patched in yeasts confers to these yeasts the ability to grow in presence of other chemotherapeutic agents currently used to treat melanoma such as dacarbazine or cisplatine.
Compound,increase of cell mortality induced by dxr (dxr cytotoxicity enhancement) [1],increase of cell mortality induced by dxr (dxr cytotoxicity enhancement) [2],increase of cell mortality induced by dxr (dxr cytotoxicity enhancement) [3],inhibition of the resistance of yeasts to vemurafenib [4],inhibition of the resistance of yeasts to cisplatine [4],inhibition of the resistance of yeasts to dacarbazine [4],"EC50 ([1]; Homo sapiens, A-375, A375, dxr 1.5 μM, read-out: concentration inducing 50% of dxr cytotoxicity enhancement (EC50)) [µM]","EC50 ([2]; Homo sapiens, MDA-MB-435, dxr 2 μM, read-out: concentration inducing 50% of dxr cytotoxicity enhancement (EC50)) [µM]","EC50 ([3]; Homo sapiens, read-out: concentration inducing 50% of dxr cytotoxicity enhancement (EC50)) [µM]"
"C/C(=C\Cc1cc(O)ccc1O)CCc1c(C)c(O)c(O)c(C=O)c1C [P2, Panicein C]",no effect,about 2 times,about 2 times,inhibits the resistance,inhibits the resistance,inhibits the resistance,–,–,–
"C/C(=C\Cc1cc(O)ccc1O)CCc1c(C)cc(O)c(C=O)c1C [P3, Panicein B3]",no effect,about 2 times,about 2 times,inhibits the resistance,inhibits the resistance,inhibits the resistance,–,–,–
"Cc1cc(O)c(C=O)c(C)c1CCC1(C)C=Cc2cc(O)ccc2O1 (stereo not shown) [P4, Panicein B2]",no effect,about 2 times,about 2 times,–,–,–,–,–,–
"COc1cc(C)c(CC/C(C)=C/Cc2cc(O)ccc2O)c(C)c1C [P5, Panicein A hydroquinone]",about 2 times,–,–,inhibits the resistance,inhibits the resistance,inhibits the resistance,22.5,9.3,5

# From patent US10376476B2, “Panicein compounds, compositions and uses thereof” (CENTRE NATIONAL DE LA RECHERCHE SCIENTIFIQUE, priority 2014, dated 2019)
